Experimental data taken from ChEMBL document CHEMBL4507292 (2021).

Experiments:
[1] = biological target: Tyrosine-protein kinase ABL2 (Homo sapiens) (UniProt P42684); details: Compound concentration 1000.0 nM
[2] = biological target: Cyclin-dependent kinase-like 1 (Homo sapiens) (UniProt Q00532); details: Compound concentration 1000.0 nM
[3] = biological target: Eukaryotic translation initiation factor 2-alpha kinase 1 (Homo sapiens) (UniProt Q9BQI3); details: Compound concentration 1000.0 nM
[4] = biological target: Mitogen-activated protein kinase 4 (Homo sapiens) (UniProt P31152); details: Compound concentration 1000.0 nM
[5] = biological target: Fibroblast growth factor receptor 3 (Homo sapiens) (UniProt P22607); details: Compound concentration 1000.0 nM
[6] = biological target: Mitogen-activated protein kinase kinase kinase kinase 1 (Homo sapiens) (UniProt Q92918); details: Compound concentration 1000.0 nM
[7] = biological target: Interleukin-1 receptor-associated kinase 4 (Homo sapiens) (UniProt Q9NWZ3); details: Compound concentration 1000.0 nM
[8] = biological target: Mast/stem cell growth factor receptor Kit (Homo sapiens) (UniProt P10721); details: Compound concentration 1000.0 nM
[9] = biological target: Mitogen-activated protein kinase kinase kinase kinase 5 (Homo sapiens) (UniProt Q9Y4K4); details: Compound concentration 1000.0 nM
[10] = biological target: Myosin light chain kinase (Homo sapiens) (UniProt Q32MK0); details: Compound concentration 1000.0 nM
[11] = biological target: Serine/threonine-protein kinase 24 (Homo sapiens) (UniProt Q9Y6E0); details: Compound concentration 1000.0 nM
[12] = biological target: Cyclin-dependent kinase 14 (Homo sapiens) (UniProt O94921); details: Compound concentration 1000.0 nM
[13] = biological target: Phosphatidylinositol 4-kinase beta (Homo sapiens) (UniProt Q9UBF8); details: Compound concentration 1000.0 nM
[14] = biological target: Protein kinase C delta type (Homo sapiens) (UniProt Q05655); details: Compound concentration 1000.0 nM
[15] = biological target: RAF proto-oncogene serine/threonine-protein kinase (Homo sapiens) (UniProt P04049); details: Compound concentration 1000.0 nM
[16] = biological target: STE20-like serine/threonine-protein kinase (Homo sapiens) (UniProt Q9H2G2); details: Compound concentration 1000.0 nM
[17] = biological target: Activated CDC42 kinase 1 (Homo sapiens) (UniProt Q07912); details: Compound concentration 1000.0 nM
[18] = biological target: NT-3 growth factor receptor (Homo sapiens) (UniProt Q16288); details: Compound concentration 1000.0 nM
[19] = biological target: Vascular endothelial growth factor receptor 2 (Homo sapiens) (UniProt P35968); details: Compound concentration 1000.0 nM
[20] = biological target: Serine/threonine-protein kinase 32B (Homo sapiens) (UniProt Q9NY57); details: Compound concentration 1000.0 nM
[21] = biological target: Serine/threonine-protein kinase 32C (Homo sapiens) (UniProt Q86UX6); details: Compound concentration 1000.0 nM
[22] = biological target: Tyrosine-protein kinase Yes (Homo sapiens) (UniProt P07947); details: Compound concentration 1000.0 nM
[23] = biological target: T1, 5-hydroxytryptamine receptor 1A (Homo sapiens) (UniProt P08908); details: Compound concentration 10.0 uM
T1 sequence (whole entry): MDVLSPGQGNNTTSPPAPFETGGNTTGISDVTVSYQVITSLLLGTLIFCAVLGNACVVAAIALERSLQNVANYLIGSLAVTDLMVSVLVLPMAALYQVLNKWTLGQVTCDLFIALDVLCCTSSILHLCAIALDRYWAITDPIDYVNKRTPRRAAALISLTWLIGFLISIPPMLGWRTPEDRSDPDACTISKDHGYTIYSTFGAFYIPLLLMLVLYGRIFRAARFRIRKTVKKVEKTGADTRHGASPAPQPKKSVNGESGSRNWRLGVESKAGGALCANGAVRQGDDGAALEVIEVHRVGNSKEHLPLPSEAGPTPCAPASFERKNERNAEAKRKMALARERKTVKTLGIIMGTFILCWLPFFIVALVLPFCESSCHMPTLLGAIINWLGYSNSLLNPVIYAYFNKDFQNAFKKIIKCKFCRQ

D(1B) dopamine receptor = D(1B) dopamine receptor (Homo sapiens, UniProt P21918); details: Compound concentration 10.0 uM
[24] = biological target: T2, Alpha-2C adrenergic receptor (Homo sapiens) (UniProt P18825); details: Compound concentration 10.0 uM
T2 sequence (whole entry): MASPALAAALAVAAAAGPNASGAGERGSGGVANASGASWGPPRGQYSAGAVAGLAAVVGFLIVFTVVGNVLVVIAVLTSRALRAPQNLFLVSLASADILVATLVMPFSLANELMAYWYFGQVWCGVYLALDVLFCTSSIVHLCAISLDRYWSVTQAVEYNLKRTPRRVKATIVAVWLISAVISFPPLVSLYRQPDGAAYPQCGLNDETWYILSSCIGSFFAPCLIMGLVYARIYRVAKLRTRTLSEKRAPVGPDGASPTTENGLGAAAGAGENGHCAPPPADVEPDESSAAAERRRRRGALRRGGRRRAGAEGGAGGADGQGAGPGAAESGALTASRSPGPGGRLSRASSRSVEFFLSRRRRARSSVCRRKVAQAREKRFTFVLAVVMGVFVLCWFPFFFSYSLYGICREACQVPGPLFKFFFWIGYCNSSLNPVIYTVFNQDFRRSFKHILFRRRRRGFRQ

[25] = biological target: T3, Muscarinic acetylcholine receptor M5 (Homo sapiens) (UniProt P08912); details: Compound concentration 10.0 uM
T3 sequence (whole entry): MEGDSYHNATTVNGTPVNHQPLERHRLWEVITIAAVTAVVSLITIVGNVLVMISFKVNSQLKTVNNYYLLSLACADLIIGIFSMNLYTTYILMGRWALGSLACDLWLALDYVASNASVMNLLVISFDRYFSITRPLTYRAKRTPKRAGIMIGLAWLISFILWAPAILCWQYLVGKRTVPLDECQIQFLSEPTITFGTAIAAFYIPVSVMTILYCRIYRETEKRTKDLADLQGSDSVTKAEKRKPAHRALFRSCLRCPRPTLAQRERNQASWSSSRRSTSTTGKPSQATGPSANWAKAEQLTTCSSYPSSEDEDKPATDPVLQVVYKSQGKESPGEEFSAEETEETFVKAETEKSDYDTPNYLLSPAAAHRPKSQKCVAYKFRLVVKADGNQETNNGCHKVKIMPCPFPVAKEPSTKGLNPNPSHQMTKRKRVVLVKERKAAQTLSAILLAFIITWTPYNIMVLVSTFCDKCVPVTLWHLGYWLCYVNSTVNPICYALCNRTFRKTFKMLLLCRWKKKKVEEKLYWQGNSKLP

Chain of Interleukin-1 receptor-associated kinase 4 (Homo sapiens) (Q9NWZ3 whole entry): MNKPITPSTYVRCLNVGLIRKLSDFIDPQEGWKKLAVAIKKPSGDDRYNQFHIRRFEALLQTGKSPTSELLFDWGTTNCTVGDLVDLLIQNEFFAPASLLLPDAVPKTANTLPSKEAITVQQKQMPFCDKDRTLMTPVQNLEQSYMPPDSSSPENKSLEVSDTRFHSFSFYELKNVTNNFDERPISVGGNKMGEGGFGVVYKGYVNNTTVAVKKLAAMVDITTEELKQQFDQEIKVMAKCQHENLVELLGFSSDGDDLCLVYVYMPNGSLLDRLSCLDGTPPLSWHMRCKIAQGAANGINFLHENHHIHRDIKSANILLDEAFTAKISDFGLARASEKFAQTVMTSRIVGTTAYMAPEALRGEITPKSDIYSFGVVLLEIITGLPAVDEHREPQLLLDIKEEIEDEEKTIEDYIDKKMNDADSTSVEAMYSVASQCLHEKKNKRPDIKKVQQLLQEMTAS
Chain of Serine/threonine-protein kinase 24 (Homo sapiens) (Q9Y6E0 whole entry, looked up): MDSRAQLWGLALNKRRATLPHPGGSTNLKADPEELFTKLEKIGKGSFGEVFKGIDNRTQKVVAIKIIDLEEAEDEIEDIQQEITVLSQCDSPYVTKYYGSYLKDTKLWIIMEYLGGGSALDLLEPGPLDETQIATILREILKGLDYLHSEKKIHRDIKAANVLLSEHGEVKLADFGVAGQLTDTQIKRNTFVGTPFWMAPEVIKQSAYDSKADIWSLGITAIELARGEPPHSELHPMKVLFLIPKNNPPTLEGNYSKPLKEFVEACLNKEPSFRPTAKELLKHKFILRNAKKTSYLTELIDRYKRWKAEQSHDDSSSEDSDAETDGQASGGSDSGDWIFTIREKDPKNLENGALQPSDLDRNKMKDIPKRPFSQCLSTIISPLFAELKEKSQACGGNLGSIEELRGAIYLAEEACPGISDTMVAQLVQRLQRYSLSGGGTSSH
Chain of Phosphatidylinositol 4-kinase beta (Homo sapiens) (Q9UBF8 2-816 limits assumed): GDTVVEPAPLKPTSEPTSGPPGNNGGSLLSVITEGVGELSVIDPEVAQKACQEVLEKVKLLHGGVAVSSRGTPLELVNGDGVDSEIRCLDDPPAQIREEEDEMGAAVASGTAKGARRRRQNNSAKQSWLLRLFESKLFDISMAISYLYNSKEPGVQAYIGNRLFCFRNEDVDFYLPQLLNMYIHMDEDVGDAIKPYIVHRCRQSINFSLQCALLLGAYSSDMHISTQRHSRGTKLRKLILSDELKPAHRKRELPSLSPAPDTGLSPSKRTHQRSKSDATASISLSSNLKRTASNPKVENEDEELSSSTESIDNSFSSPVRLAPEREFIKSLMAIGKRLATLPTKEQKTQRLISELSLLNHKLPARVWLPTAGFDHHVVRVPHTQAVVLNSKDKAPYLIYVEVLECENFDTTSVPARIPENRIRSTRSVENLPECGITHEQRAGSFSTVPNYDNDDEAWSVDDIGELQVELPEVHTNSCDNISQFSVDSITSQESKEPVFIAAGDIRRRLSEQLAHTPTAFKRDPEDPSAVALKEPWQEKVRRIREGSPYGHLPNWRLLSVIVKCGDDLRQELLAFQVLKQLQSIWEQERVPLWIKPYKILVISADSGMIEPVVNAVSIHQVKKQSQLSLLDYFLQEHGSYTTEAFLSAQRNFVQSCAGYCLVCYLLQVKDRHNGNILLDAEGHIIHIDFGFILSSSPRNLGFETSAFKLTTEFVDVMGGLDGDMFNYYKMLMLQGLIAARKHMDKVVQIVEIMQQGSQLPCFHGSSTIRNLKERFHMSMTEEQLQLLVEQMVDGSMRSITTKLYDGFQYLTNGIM
Chain of Serine/threonine-protein kinase 32B (Homo sapiens) (Q9NY57 whole entry): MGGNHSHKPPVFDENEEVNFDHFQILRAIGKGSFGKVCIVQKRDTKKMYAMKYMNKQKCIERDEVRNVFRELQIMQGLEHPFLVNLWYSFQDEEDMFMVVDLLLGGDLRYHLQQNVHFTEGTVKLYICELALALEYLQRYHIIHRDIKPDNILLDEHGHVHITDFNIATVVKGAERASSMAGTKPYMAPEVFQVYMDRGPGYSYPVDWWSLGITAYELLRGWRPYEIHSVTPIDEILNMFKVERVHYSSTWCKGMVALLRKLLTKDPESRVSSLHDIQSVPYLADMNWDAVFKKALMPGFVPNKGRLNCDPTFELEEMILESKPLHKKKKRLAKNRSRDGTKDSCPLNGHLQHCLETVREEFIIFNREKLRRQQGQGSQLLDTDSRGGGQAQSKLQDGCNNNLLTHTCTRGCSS
Chain of RAF proto-oncogene serine/threonine-protein kinase (Homo sapiens) (P04049 whole entry): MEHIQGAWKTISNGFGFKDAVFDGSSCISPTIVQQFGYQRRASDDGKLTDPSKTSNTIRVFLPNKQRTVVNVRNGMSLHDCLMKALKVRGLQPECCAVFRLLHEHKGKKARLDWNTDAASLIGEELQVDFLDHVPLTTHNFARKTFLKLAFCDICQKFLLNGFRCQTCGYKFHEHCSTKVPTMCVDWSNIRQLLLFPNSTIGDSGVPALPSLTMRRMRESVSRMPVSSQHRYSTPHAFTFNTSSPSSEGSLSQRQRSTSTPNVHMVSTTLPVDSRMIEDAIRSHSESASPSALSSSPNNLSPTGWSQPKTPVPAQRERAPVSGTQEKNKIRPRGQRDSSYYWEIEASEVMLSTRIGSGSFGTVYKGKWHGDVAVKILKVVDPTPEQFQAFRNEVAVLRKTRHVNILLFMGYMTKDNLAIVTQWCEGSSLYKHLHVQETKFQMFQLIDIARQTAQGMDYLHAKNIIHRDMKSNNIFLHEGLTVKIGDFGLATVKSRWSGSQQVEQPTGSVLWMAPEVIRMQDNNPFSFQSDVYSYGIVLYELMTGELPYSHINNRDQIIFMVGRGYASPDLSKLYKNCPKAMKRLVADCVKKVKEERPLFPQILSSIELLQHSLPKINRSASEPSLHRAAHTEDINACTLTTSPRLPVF
Chain of Tyrosine-protein kinase ABL2 (Homo sapiens) (P42684 whole entry): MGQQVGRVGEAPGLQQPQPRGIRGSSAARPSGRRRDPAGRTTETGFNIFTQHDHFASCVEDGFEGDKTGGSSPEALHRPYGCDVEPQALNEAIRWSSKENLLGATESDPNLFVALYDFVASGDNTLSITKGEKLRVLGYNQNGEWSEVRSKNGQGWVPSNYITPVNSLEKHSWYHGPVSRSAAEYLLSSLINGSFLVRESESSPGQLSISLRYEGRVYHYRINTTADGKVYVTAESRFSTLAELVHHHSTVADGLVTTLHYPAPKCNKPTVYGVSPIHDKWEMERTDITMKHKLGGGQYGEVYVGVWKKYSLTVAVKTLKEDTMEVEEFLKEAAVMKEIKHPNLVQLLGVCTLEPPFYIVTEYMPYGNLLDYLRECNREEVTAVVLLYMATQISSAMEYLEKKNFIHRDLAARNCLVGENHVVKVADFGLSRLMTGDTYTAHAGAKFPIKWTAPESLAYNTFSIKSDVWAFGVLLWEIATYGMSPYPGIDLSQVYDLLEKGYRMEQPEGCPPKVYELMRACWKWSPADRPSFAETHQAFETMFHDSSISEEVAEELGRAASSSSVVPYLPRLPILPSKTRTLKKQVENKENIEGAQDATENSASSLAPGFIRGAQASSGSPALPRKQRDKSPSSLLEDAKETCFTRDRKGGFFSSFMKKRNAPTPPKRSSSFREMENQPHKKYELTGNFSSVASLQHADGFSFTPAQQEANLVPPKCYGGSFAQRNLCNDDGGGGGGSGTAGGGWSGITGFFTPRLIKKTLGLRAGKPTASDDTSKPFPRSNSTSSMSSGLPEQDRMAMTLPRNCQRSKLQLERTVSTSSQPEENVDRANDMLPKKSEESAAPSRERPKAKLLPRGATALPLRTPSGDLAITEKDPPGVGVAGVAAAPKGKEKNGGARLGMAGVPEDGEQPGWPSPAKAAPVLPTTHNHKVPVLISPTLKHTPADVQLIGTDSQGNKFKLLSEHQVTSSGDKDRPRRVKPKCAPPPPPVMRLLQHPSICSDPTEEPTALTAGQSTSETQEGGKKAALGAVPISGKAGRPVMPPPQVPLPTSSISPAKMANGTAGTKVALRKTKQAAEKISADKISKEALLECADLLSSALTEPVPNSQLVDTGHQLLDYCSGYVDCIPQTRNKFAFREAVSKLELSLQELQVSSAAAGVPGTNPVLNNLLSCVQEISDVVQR
Chain of Cyclin-dependent kinase 14 (Homo sapiens) (O94921 whole entry): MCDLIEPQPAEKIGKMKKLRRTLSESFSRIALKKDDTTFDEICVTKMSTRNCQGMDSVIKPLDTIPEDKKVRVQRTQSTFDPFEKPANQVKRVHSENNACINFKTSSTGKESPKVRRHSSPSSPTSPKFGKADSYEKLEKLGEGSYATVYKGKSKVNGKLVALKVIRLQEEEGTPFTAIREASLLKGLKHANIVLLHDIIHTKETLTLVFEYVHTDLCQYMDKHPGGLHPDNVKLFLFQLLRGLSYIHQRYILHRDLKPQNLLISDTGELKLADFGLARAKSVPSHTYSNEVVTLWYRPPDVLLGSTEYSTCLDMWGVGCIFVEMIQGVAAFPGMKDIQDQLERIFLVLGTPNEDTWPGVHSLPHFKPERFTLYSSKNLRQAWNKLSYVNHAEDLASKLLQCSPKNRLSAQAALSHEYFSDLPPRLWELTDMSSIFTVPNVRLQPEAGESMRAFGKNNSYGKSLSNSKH
Chain of Cyclin-dependent kinase-like 1 (Homo sapiens) (Q00532 whole entry): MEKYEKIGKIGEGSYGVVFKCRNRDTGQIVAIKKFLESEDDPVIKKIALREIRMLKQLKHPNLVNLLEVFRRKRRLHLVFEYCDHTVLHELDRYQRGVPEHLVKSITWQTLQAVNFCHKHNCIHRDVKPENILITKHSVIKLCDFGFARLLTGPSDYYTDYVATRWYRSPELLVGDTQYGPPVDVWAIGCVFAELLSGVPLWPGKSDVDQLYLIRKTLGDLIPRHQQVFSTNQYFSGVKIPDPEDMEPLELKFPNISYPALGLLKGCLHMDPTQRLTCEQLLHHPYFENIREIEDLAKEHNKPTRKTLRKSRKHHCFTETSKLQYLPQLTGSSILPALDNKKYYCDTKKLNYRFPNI

In the case of `Cc1c(C(=O)O)cc(-c2ccc(C3CCNCC3)cc2)c2ccc(-c3ccc(C(F)(F)F)cc3)cc12` [PPTN-NC], the residual activity [1] is reported as 100%, the residual activity [2] is reported as 82% and the residual activity [3] is reported as 77%. It also gave a residual activity [4] of 100%, a residual activity [5] of 100% and a residual activity [6] of 90%. It also gave a residual activity [7] of 100%, a residual activity [8] of 84% and a residual activity [9] of 100%. It also gave a residual activity [10] of 94%, a residual activity [11] of 100% and a residual activity [12] of 100%. The residual activity [13] was 100%, the residual activity [14] was 100% and the residual activity [15] was 80%. It also gave a residual activity [16] of 100%, a residual activity [17] of 100% and a residual activity [18] of 100%. For the same molecule, the residual activity [19] was 100%, the residual activity [20] was 100% and the residual activity [21] was 100%. It also gave a residual activity [22] of 100%, an inhibition [23] of 1.01% and an inhibition (D(1B) dopamine receptor) of 58.1%. For the same molecule, the inhibition [24] was 46.4% and the inhibition [25] was 10.1%.

For `O=C(O)c1cc(-c2ccc(C3CCNCC3)cc2)c2ccc(-c3ccc(C(F)(F)F)cc3)cc2c1` [PPTN], the residual activity [1] was 100%, the residual activity [2] was 93% and the residual activity [3] was 98%. For the same molecule, the residual activity [4] was 100%, the residual activity [5] was 100% and the residual activity [6] was 96%. The residual activity [7] was 100%, the residual activity [8] was 99% and the residual activity [9] was 100%. It also gave a residual activity [10] of 100%, a residual activity [11] of 100% and a residual activity [12] of 100%. For the same molecule, the residual activity [13] was 100%, the residual activity [14] was 100% and the residual activity [15] was 70%. The residual activity [16] was 100%, the residual activity [17] was 100% and the residual activity [18] was 100%. The residual activity [19] was 100%, the residual activity [20] was 100% and the residual activity [21] was 100%. For the same molecule, the residual activity [22] was 100%, the inhibition [23] was 11.2% and the inhibition (D(1B) dopamine receptor) was 73.7%. For the same molecule, the inhibition [24] was 30.2% and the inhibition [25] was 10.1%.
